Source: ChEMBL document CHEMBL1201861, “Genomics of Drug Sensitity in Cancer screening data, Wellcome Trust Sanger Institute”

System: CTB-1
Assay: cells
Type: functional, cell-based, Homo sapiens
Settings: Homo sapiens, CTB-1
Description: SANGER: Inhibition of human CTB-1 cell growth in a cell viability assay.

| Structure (SMILES) | IC50 [µM] |
| --- | --- |
| OC[C@H](Cc1ccccc1)Nc1nc(Oc2ccc3c(c2)CCC3)nc2c1ncn2Cc1ccc(-c2ccccc2)cc1 | > 10.2 |

System: Calu-6;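 also: growth of human Calu-6 cells, read out by a cell viability assay, IC50 marking inhibition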
Assay: cells
Type: functional, cell-based, Homo sapiens
Settings: Homo sapiens, Calu-6
Description: SANGER: Inhibition of human Calu-6 cell growth in a cell viability assay.

| Structure (SMILES) | IC50 [µM] |
| --- | --- |
| OC[C@H](Cc1ccccc1)Nc1nc(Oc2ccc3c(c2)CCC3)nc2c1ncn2Cc1ccc(-c2ccccc2)cc1 | > 10.2 |

System: D-502MG
Assay: cells
Type: functional, cell-based, Homo sapiens
Settings: Homo sapiens, D-502MG
Description: SANGER: Inhibition of human D-502MG cell growth in a cell viability assay.

| Structure (SMILES) | IC50 [µM] |
| --- | --- |
| OC[C@H](Cc1ccccc1)Nc1nc(Oc2ccc3c(c2)CCC3)nc2c1ncn2Cc1ccc(-c2ccccc2)cc1 | > 10.2 |

System: DB
Assay: cells
Type: functional, cell-based, Homo sapiens
Settings: Homo sapiens, DB
Description: SANGER: Inhibition of human DB cell growth in a cell viability assay.

| Structure (SMILES) | IC50 [µM] |
| --- | --- |
| OC[C@H](Cc1ccccc1)Nc1nc(Oc2ccc3c(c2)CCC3)nc2c1ncn2Cc1ccc(-c2ccccc2)cc1 | 6.68 |

System: DEL;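 also: growth inhibition of the human DEL cell line, read out with a cell viability assay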
Assay: cells
Type: functional, cell-based, Homo sapiens
Settings: Homo sapiens, DEL
Description: SANGER: Inhibition of human DEL cell growth in a cell viability assay.

| Structure (SMILES) | IC50 [µM] |
| --- | --- |
| OC[C@H](Cc1ccccc1)Nc1nc(Oc2ccc3c(c2)CCC3)nc2c1ncn2Cc1ccc(-c2ccccc2)cc1 | > 10.2 |

System: EM-2;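 also: growth inhibition of EM-2 cells, read out with a cell viability assay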
Assay: cells
Type: functional, cell-based, Homo sapiens
Settings: Homo sapiens, EM-2
Description: SANGER: Inhibition of human EM-2 cell growth in a cell viability assay.

| Structure (SMILES) | IC50 [µM] |
| --- | --- |
| OC[C@H](Cc1ccccc1)Nc1nc(Oc2ccc3c(c2)CCC3)nc2c1ncn2Cc1ccc(-c2ccccc2)cc1 | > 10.2 |

System: ES5;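 also: growth inhibition of human ES5 cells, read out by a cell viability assay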
Assay: cells
Type: functional, cell-based, Homo sapiens
Settings: Homo sapiens, ES5
Description: SANGER: Inhibition of human ES5 cell growth in a cell viability assay.

| Structure (SMILES) | IC50 [µM] |
| --- | --- |
| OC[C@H](Cc1ccccc1)Nc1nc(Oc2ccc3c(c2)CCC3)nc2c1ncn2Cc1ccc(-c2ccccc2)cc1 | > 10.2 |

System: ES6;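 also: growth inhibition of human ES6 cells, read out with a cell viability assay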
Assay: cells
Type: functional, cell-based
Settings: Homo sapiens
Description: SANGER: Inhibition of human ES6 cell growth in a cell viability assay.

| Structure (SMILES) | IC50 [µM] |
| --- | --- |
| OC[C@H](Cc1ccccc1)Nc1nc(Oc2ccc3c(c2)CCC3)nc2c1ncn2Cc1ccc(-c2ccccc2)cc1 | > 10.2 |

System: ES8;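 also: growth inhibition of human ES8 cells, read out with a cell viability assay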
Assay: cells
Type: functional, cell-based, Homo sapiens
Settings: Homo sapiens, ES8
Description: SANGER: Inhibition of human ES8 cell growth in a cell viability assay.

| Structure (SMILES) | IC50 [µM] |
| --- | --- |
| OC[C@H](Cc1ccccc1)Nc1nc(Oc2ccc3c(c2)CCC3)nc2c1ncn2Cc1ccc(-c2ccccc2)cc1 | > 10.2 |

System: EW-13;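 also: growth inhibition of EW-13 cells, read out with a cell viability assay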
Assay: cells
Type: functional, cell-based, Homo sapiens
Settings: Homo sapiens, EW-13; read-out: IC50
Description: SANGER: Inhibition of human EW-13 cell growth in a cell viability assay.

| Structure (SMILES) | IC50 [µM] |
| --- | --- |
| OC[C@H](Cc1ccccc1)Nc1nc(Oc2ccc3c(c2)CCC3)nc2c1ncn2Cc1ccc(-c2ccccc2)cc1 | 0.413 |

System: GAK;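 also: cell growth inhibition read out by a cell viability assay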
Assay: cells
Type: functional, cell-based, Homo sapiens
Settings: Homo sapiens, GAK
Description: SANGER: Inhibition of human GAK cell growth in a cell viability assay.

| Structure (SMILES) | IC50 [µM] |
| --- | --- |
| OC[C@H](Cc1ccccc1)Nc1nc(Oc2ccc3c(c2)CCC3)nc2c1ncn2Cc1ccc(-c2ccccc2)cc1 | > 10.2 |

System: HDLM-2;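 also: cell viability assay measuring suppression of HDLM-2 proliferation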
Assay: cells
Type: functional, cell-based, Homo sapiens
Settings: Homo sapiens, HDLM-2
Description: SANGER: Inhibition of human HDLM-2 cell growth in a cell viability assay.

| Structure (SMILES) | IC50 [µM] |
| --- | --- |
| OC[C@H](Cc1ccccc1)Nc1nc(Oc2ccc3c(c2)CCC3)nc2c1ncn2Cc1ccc(-c2ccccc2)cc1 | > 10.2 |

System: HT-144
Assay: cells
Type: functional, cell-based, Homo sapiens
Settings: Homo sapiens, HT-144
Description: SANGER: Inhibition of human HT-144 cell growth in a cell viability assay.

| Structure (SMILES) | IC50 [µM] |
| --- | --- |
| OC[C@H](Cc1ccccc1)Nc1nc(Oc2ccc3c(c2)CCC3)nc2c1ncn2Cc1ccc(-c2ccccc2)cc1 | 8.54 |

System: IST-MEL1;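 also: growth inhibition of the cell line, read out with a cell viability assay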
Assay: cells
Type: functional, cell-based, Homo sapiens
Settings: Homo sapiens, IST-MEL1
Description: SANGER: Inhibition of human IST-MEL1 cell growth in a cell viability assay.

| Structure (SMILES) | IC50 [µM] |
| --- | --- |
| OC[C@H](Cc1ccccc1)Nc1nc(Oc2ccc3c(c2)CCC3)nc2c1ncn2Cc1ccc(-c2ccccc2)cc1 | > 10.2 |

System: K5
Assay: cells
Type: functional, cell-based, Homo sapiens
Settings: Homo sapiens, K5
Description: SANGER: Inhibition of human K5 cell growth in a cell viability assay.

| Structure (SMILES) | IC50 [µM] |
| --- | --- |
| OC[C@H](Cc1ccccc1)Nc1nc(Oc2ccc3c(c2)CCC3)nc2c1ncn2Cc1ccc(-c2ccccc2)cc1 | > 10.2 |

System: L-428
Assay: cells
Type: functional, cell-based, Homo sapiens
Settings: Homo sapiens, L-428
Description: SANGER: Inhibition of human L-428 cell growth in a cell viability assay.

| Structure (SMILES) | IC50 [µM] |
| --- | --- |
| OC[C@H](Cc1ccccc1)Nc1nc(Oc2ccc3c(c2)CCC3)nc2c1ncn2Cc1ccc(-c2ccccc2)cc1 | > 10.2 |

System: LB2518-MEL;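 also: growth inhibition of human LB2518-MEL cells, measured with a cell viability assay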
Assay: cells
Type: functional, cell-based
Settings: Homo sapiens
Description: SANGER: Inhibition of human LB2518-MEL cell growth in a cell viability assay.

| Structure (SMILES) | IC50 [µM] |
| --- | --- |
| OC[C@H](Cc1ccccc1)Nc1nc(Oc2ccc3c(c2)CCC3)nc2c1ncn2Cc1ccc(-c2ccccc2)cc1 | > 10.2 |

System: LB831-BLC;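 also: growth inhibition of LB831-BLC cells, read out with a cell viability assay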
Assay: cells
Type: functional, cell-based, Homo sapiens
Settings: Homo sapiens, LB831-BLC
Description: SANGER: Inhibition of human LB831-BLC cell growth in a cell viability assay.

| Structure (SMILES) | IC50 [µM] |
| --- | --- |
| OC[C@H](Cc1ccccc1)Nc1nc(Oc2ccc3c(c2)CCC3)nc2c1ncn2Cc1ccc(-c2ccccc2)cc1 | > 10.2 |

System: LB996-RCC
Assay: cells
Type: functional, cell-based, Homo sapiens
Settings: Homo sapiens, LB996-RCC
Description: SANGER: Inhibition of human LB996-RCC cell growth in a cell viability assay.

| Structure (SMILES) | IC50 [µM] |
| --- | --- |
| OC[C@H](Cc1ccccc1)Nc1nc(Oc2ccc3c(c2)CCC3)nc2c1ncn2Cc1ccc(-c2ccccc2)cc1 | > 10.2 |

System: LS-123
Assay: cells
Type: functional, cell-based, Homo sapiens
Settings: Homo sapiens, LS-123
Description: SANGER: Inhibition of human LS-123 cell growth in a cell viability assay.

| Structure (SMILES) | IC50 [µM] |
| --- | --- |
| OC[C@H](Cc1ccccc1)Nc1nc(Oc2ccc3c(c2)CCC3)nc2c1ncn2Cc1ccc(-c2ccccc2)cc1 | 9.49 |

System: LXF-289 cell line
Assay: cells
Type: functional, cell-based
Settings: Homo sapiens
Description: SANGER: Inhibition of human LXF-289 cell growth in a cell viability assay.

| Structure (SMILES) | IC50 [µM] |
| --- | --- |
| OC[C@H](Cc1ccccc1)Nc1nc(Oc2ccc3c(c2)CCC3)nc2c1ncn2Cc1ccc(-c2ccccc2)cc1 | 7.61 |

System: MEG-01;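 also: growth inhibition of MEG-01 cells, read out by a cell viability assay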
Assay: cells
Type: functional, cell-based, Homo sapiens
Settings: Homo sapiens, MEG-01
Description: SANGER: Inhibition of human MEG-01 cell growth in a cell viability assay.

| Structure (SMILES) | IC50 [µM] |
| --- | --- |
| OC[C@H](Cc1ccccc1)Nc1nc(Oc2ccc3c(c2)CCC3)nc2c1ncn2Cc1ccc(-c2ccccc2)cc1 | 4.6 |

System: MHH-NB-11;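 also: growth inhibition of human MHH-NB-11 cells, read out by a cell viability assay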
Assay: cells
Type: functional, cell-based, Homo sapiens
Settings: Homo sapiens, MHH-NB-11
Description: SANGER: Inhibition of human MHH-NB-11 cell growth in a cell viability assay.

| Structure (SMILES) | IC50 [µM] |
| --- | --- |
| OC[C@H](Cc1ccccc1)Nc1nc(Oc2ccc3c(c2)CCC3)nc2c1ncn2Cc1ccc(-c2ccccc2)cc1 | > 10.2 |

System: ML-2;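 also: growth inhibition of ML-2 cells, measured with a cell viability readout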
Assay: cells
Type: functional, cell-based, Homo sapiens
Settings: Homo sapiens, ML-2
Description: SANGER: Inhibition of human ML-2 cell growth in a cell viability assay.

| Structure (SMILES) | IC50 [µM] |
| --- | --- |
| OC[C@H](Cc1ccccc1)Nc1nc(Oc2ccc3c(c2)CCC3)nc2c1ncn2Cc1ccc(-c2ccccc2)cc1 | > 10.2 |

System: MOLT-4;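 also: growth inhibition of MOLT-4 cells, determined with a cell viability readout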
Assay: cells
Type: functional, cell-based, Homo sapiens
Settings: Homo sapiens, MOLT-4
Description: SANGER: Inhibition of human MOLT-4 cell growth in a cell viability assay.

| Structure (SMILES) | IC50 [µM] |
| --- | --- |
| OC[C@H](Cc1ccccc1)Nc1nc(Oc2ccc3c(c2)CCC3)nc2c1ncn2Cc1ccc(-c2ccccc2)cc1 | > 10.2 |
